≈ marks a conversion by molar mass, not a printed value. Like-named read-outs stand apart in the source and are kept apart here.
Columns and labels:
[1] = MTT cytotoxicity / synergy assay, 72 h, MCF-7; format: cell-based, human; conditions: human, MCF-7 cells
Procedure: (§1) Stock solutions of the tested compounds were first prepared in DMSO at 200-fold the intended final concentration. […] The cells were treated for 72 h under the same conditions.
(§2) Following treatment, 25 μL of MTT solution was added to each well, and the plates were incubated for 2 h at 37 °C. […] IC₅₀ values, indicating the concentration required to reduce cell viability by 50% compared to untreated controls (set as 100% viability), were calculated using GraphPad Prism 9 software (GraphPad Software, San Diego, CA, USA). All data from this preliminary cytotoxic assay were analyzed by ANOVA followed by Tukey’s post hoc test for multiple comparisons, with significance set at p < 0.05. A similar statistical approach was used for the rest of the experimental work presented in this study.

MCF-7 cells [2] = assay: MTT cytotoxicity / synergy assay, 72 h, MCF-7; format: cell-based, human; conditions: 72 h
Procedure: as §1, §2

U-87MG cells = assay: MTT cytotoxicity / synergy assay, 72 h, U-87MG; format: cell-based; conditions: Homo sapiens, n.d. = IC50 not achieved within concentrations tested, read-out: IC50 Value in Specific Cell Line, U-87MG
Procedure: (§4) The synergistic effects of drug combinations were studied in various cancer cell lines, including MCF-7 (human breast cancer), A549 (human lung cancer), U-87 MG (human malignant glioma), HepG2 (human liver cancer), and HUH7 (human liver cancer). HMEC-1, an immortalized human microvascular endothelial cell line, was used as a model for normal cells. All cell lines were purchased from ATCC (Rockville, MD, USA).
(§5) The cancer cell lines were cultured in Dulbecco’s Modified Eagle’s Medium (DMEM; Sigma-Aldrich) supplemented with 10% FBS and 1% penicillin/streptomycin mixture (10,000 U/mL penicillin and 10 mg/mL streptomycin; Sigma-Aldrich) at 37 °C in a humidified atmosphere with 5% CO2.
(§6) For the MTT assay, exponentially growing cells were seeded into 96-well plates at a density of 5 × 10³ cells per well. After 24 h of incubation, the medium was replaced with 100 µL of fresh medium containing the tested compounds. After 72 h of treatment, cell viability was assessed using the MTT assay as described earlier. […] IC50 values were calculated using GraphPad Prism 9 software (GraphPad Software).

A549 cells [3] = assay: Doxorubicin accumulation assay, A549; format: cell-based, human; conditions: 50 µM DOXO and 1.56 µM GLIM, 3 h
Procedure: (§3) Cells were seeded at a density of 2 × 10^4 cells per well in black 96-well plates as described in Section 3.6.

[4] = system: A549, HepG2, MCF-7, and U-87MG; assay: Doxorubicin accumulation assay, sensitive cell lines; format: cell-based, human
Procedure: as §3

4T1 tumors = assay: 4T1 breast cancer in BALB/c mice; format: in vivo; conditions: GLIM alone 4 mg/kg i.p.
Procedure: Six- to eight-week-old female BALB/c mice (Charles River Breeding Laboratories, Wilmington, MA, USA) were bred at the Maria Sklodowska-Curie National Research Institute of Oncology, Gliwice Branch (Gliwice, Poland), under a HEPA-filtered Allentown's IVC System (Allentown Caging Equipment Co., Allentown, NJ, USA). All efforts to minimize animal suffering were made by qualified personnel. This study was carried out in strict accordance with the recommendations in the Guide for the Care and Use of Laboratory Animals of the National Institutes of Health. The protocols were approved by the Committee on the Ethics of Animal Experiments of the Local Ethics Commission (Medical University of […], Poland; Permit No. 22/2024). BALB/c mice were injected subcutaneously in the lower flank with 2 × 10^5 4T1 cells suspended in 100 μL PBS. […] Each treatment was administered a total of five times.

[5] = DLS particle size measurements; format: physicochemical
Procedure: Dynamic light scattering (DLS) measurements were performed using a Zetasizer Nano ZS instrument (Malvern Instruments, Malvern, UK). Samples of 2 mL were placed in disposable PMMA cuvettes (cat. #634-0677; VWR, Gdańsk, Poland) and measured at 37 °C. To ensure accuracy, each sample was measured at least three times. The data were processed using DTS v6.2 software (Malvern Instruments).

[6] = Analysis of drug solubility (Cobs by HPLC); format: physicochemical
Procedure: The drug content in the samples was determined using a previously described HPLC method. The analysis was performed on an Ultimate 3000 HPLC system (Dionex Co., Germering, Germany), equipped with a UV–Vis detector and a TSKgel ODS-100V column (particle size: 5 µm; dimensions: 4.6 mm i.d. × 15 cm; Tosoh Co., Tokyo, Japan). The mobile phase consisted of MeCN and 20 mM KH2PO4 buffer (pH 3.0) in an appropriate ratio. The flow rate was maintained at 1.0 mL/min, with the column temperature set to 30 °C. All compounds were detected at 228 nm.
Some samples included 0.05% (v/v) Tween-80. For experiments involving BSA, a separate solution was prepared by dissolving 4.5 mg/mL of BSA (cat. #422381B, VWR) in the same PBS (pH 7.4), with or without 0.05% (v/v) Tween-80. All samples were incubated at 37 °C with shaking for 24 h. After incubation, the samples were either centrifuged at 13,500 rpm (RCF = 12,225 g) for 15 min using a Micro Star 12 microcentrifuge (VWR), and 150 µL of the supernatant was collected for HPLC analysis, or filtered using 0.22 µm PVDF syringe filters (13 mm i.d., cat. #514-1251, VWR) or AcroPrep™ Advance 96-well filter plates (Pall Corporation, Dreieich, Germany) with various molecular weight cut-offs.

HSA = system: HSA; design: method as in Figure S2 [39–71]; conditions: ref Figure S2 [39–71]; cited from earlier work
MCF-7 cells [7] = conditions: cited from earlier work
[8] = system: 4T1 breast cancer and B16F10 melanoma xenografts; conditions: 4T1, B16F10 xenografts, MMTV-PyMT; cited from earlier work
multiple cell lines = system: multiple cell lines; design: method as in Alkhalil et al. and others [10,11,16,26]; conditions: range reported; ref Alkhalil et al. and others [10,11,16,26]; read-out: cytotoxicity (IC50 range over cell lines), literature; cited from earlier work
A549 cells [9] = assay: MTT cytotoxicity / synergy assay, 72 h, A549; conditions: Homo sapiens, A549, 72 h, read-out: IC50 Value in Specific Cell Line, A549, MTT, 72 h; n.d. = IC50 not achieved within concentrations tested
Procedure: as §4, §5, §6

HuH7 cells = assay: MTT cytotoxicity / synergy assay, 72 h, HuH7; conditions: Homo sapiens, Huh-7, 72 h, read-out: IC50 Value in Specific Cell Line, HuH7
Procedure: as §4, §5, §6

HepG2 cells = assay: MTT cytotoxicity / synergy assay, 72 h, HepG2; conditions: Homo sapiens, HepG2, 72 h, read-out: IC50 Value in Specific Cell Line, HepG2, MTT, 72 h; n.d. = IC50 not achieved within concentrations tested
Procedure: as §4, §5, §6

Which results are given for `CCC1=C(C)CN(C(=O)NCCc2ccc(S(=O)(=O)NC(=O)N[C@H]3CC[C@H](C)CC3)cc2)C1=O` [GLIM, Glimepiride]?
viability at 72 h ([1]; 0.05% Tween-80, read-out: MCF-7 viability with 0.05% Tween-80): 71.2%; viability at 72 h ([1]; before addition of 0.05% Tween-80, read-out: MCF-7 viability without Tween-80): 95.9%; decrease in cell viability caused by 0.05% Tween-80 (MCF-7 cells [2]; with vs. without 0.05% Tween-80): 24.6%; IC50 (MCF-7 cells [2]; Homo sapiens, MCF7, 72 h, MTT, n.d. = IC50 not achieved within concentrations tested, read-out: IC50 Value in Specific Cell Line, MCF-7): 175 µM; IC50 (U-87MG cells): 186 µM; increase in DOXO level compared to DOXO monotherapy (A549 cells [3]): 227%; increase of DOXO levels [4]: up to 2.3 times; body weight compared to controls (4T1 tumors): no significant change in body weight; tumor size compared to untreated controls (4T1 tumors): no reduction in tumor size; d¯I of drug aggregates ([5]; PBS pH 7.4, 37 °C, […] BSA, GLIM beyond 200 µM): approx. 353 nm; diameter of aggregates ([5]; absence of BSA, buffers and culture media): over 300 nm; concentration up to which Cobs matches the expected concentration ([6]; GLIM only in PBS pH 7.4, 37 °C, 24 h, centrifugation): up to 100 µM; observed concentration (Cobs) ([6]; GLIM only, 0.22 µm syringe filters, all tested samples): 8.6 to 16.6 µM; solubility kinetic at 24 h ([6]; PBS, pH 7.4, aqueous buffer, read-out: observed concentration (Cobs) above the threshold): ~5 µM (≈ 2.45 µg/mL); nKa (global affinity constant, HSA) (HSA): 910000 M⁻¹; IC50 (MCF-7 cells [7]; calculated by the authors from the results of Faridi et al., read-out: IC50 value, MCF-7): 79.8 µM; IC50 (MCF-7 cells [7]; read-out: IC50, MCF-7): 50 µM; effect on tumor growth and metastasis [8]: no effect; IC50 (multiple cell lines): 89.4 to 426 µM; IC50 (A549 cells [9]): 353 µM; IC50 (HuH7 cells): 476 ± 7 µM; IC50 (HepG2 cells): 177 µM

Reference: article PMC11855866 (International Journal of Molecular Sciences, 2025)
